Measurements from publication PMC11909904 (Cardiovascular Diabetology, 2025).

Biological target: T1, GPR30 (Rattus norvegicus, UniProt O08878)
T1 sequence (O08878 1-375): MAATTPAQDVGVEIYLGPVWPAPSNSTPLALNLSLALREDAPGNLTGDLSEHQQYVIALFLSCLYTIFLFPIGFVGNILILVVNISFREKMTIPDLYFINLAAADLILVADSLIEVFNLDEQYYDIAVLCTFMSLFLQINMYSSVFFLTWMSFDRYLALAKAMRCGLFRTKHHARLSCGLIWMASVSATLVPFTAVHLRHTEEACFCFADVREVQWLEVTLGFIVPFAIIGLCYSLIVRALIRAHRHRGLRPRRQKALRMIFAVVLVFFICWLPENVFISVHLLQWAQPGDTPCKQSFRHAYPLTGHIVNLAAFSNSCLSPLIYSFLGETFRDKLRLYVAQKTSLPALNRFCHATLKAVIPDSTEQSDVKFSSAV
Assay: CETSA in intact RVECs and lysates
Assay type: biochemical
Conditions: 30 µM Rd (CETSA)

CC(C)=CCC[C@](C)(O[C@@H]1O[C@H](CO)[C@@H](O)[C@H](O)[C@H]1O)[C@H]1CC[C@]2(C)[C@@H]1[C@H](O)C[C@@H]1[C@@]3(C)CC[C@H](O[C@@H]4O[C@H](CO)[C@@H](O)[C@H](O)[C@H]4O[C@@H]4O[C@H](CO)[C@@H](O)[C@H](O)[C@H]4O)C(C)(C)[C@@H]3CC[C@]12C [Rd, Ginsenoside Rd]
CETSA: the incubation with Rd stabilized GPR30 in heat-denatured intact RVECs and cell lysates
